From patent US4272538A, “5-Nitro-imidazole with antiprotozoic activity” (Rotta Research Laboratorium S.p.A., priority 1978, dated 1981)

Tests used:
Trichomonas Vaginalis = test: Systemic activity in mice infected subcutaneously with Trichomonas Vaginalis; assay type: in vivo
Procedure: (B1) Systematic activity in mice infected subcutaneously with Trichomonas Vaginalis Female Charles River mice of about 20 grams weight are used and injected subcutaneously with 1 ml of a physiological solution containing 10^6 cells of Trichomonas Vaginalis (evaluated by means of counting in a Burker chamber), resulting from a 24 hour culture in Trichosel BBL substrate containing 15% in weight/volume of deactivated horse serum. Abscesses are thus developed in the place of infection which may burst open externally, piercing the skin. To establish the activity of a product, groups of 10 animals per tested dose are used, and on the 7th day the presence or absence of abscesses are determined (evaluated in terms of all or nothing). The compounds are administered orally, dissolved or in suspension in water, over 5 days, twice a day, the treatment being started 30 minutes after infection. The results obtained are recorded in Table 2 which gives the ED84 in mg/kg for oral administration, that is the dose of the drug capable of preventing the formation of the infection in 84% of the infected animals.

Entamoeba Histolytica = test: Systemic activity on hepatic abscess from Entamoeba Histolytica in the hamster; assay type: in vivo
Procedure: (B2) Systemic activity on hepatic abscess from Entamoeba Histolytica in the hamster Golden hamsters of the strain RRL-805 of about 50 grams weight are used; after laparatomy, 0.05 ml of a suspension of amoebae (cellular density of about 10^6 amoebae/ml) is injected into the right hepatic lobe. Abscesses develop on the liver, the average weight of which is determined after killing of the animals 72 hours after the injection. The drugs under examination are administered orally twice a day for four days, the treatment being started the day before the infection. The evaluation is carried out by comparing the average weight of the hepatic abscesses developed in the group of animals treated with a drug with that of a control group. The results obtained are recorded in Table 3 which gives the ED84 in mg/kg administered orally, that is the dose of the drug capable of reducing the weight of the abscesses by 84% with respect to the controls. The values given were calculated from the regression line obtained from the results of a series of experiments, each compound being administered to at least 5 groups of six animals at generally different doses.

[1] = cited from earlier work

O=[N+]([O-])c1cncn1CCN1CCOCC1 [Nimorazole, reference compound]
ED84 (Trichomonas Vaginalis; Trichomonas vaginalis, 168 h, oral, twice a day over 5 days, dose preventing infection in 84% of animals, (S)/(NS) = significance of regression line, read-out: ED84, anti-trichomonas activity in mice): 62.6 mg/kg
Index of relative activity calc. on ED84 (vs metronidazole), mice (Trichomonas Vaginalis; relative to metronidazole = 1): 0.45
ED84 (Entamoeba Histolytica; Entamoeba histolytica, 72 h, oral, twice a day for four days, dose reducing abscess weight by 84% vs controls, (S)/(NS) = significance of regression line, read-out: ED84, anti-amoebic activity in the hamster): 133 mg/kg
Index of relative activity calc. on the ED84 (vs metronidazole), hamster (Entamoeba Histolytica; relative to metronidazole = 1): 0.8
LD50, acute oral toxicity (data from literature, rat) [1]: 3180 mg/kg
